# Assay results reported in patent US7097848B2, “Synergistic insecticidal mixtures” (Bayer Cropscience AG, priority 2002, dated 2006).
# Key:
# Assay type in all cases: in vivo
# [1] = test system: green peach aphid (Myzus persicae); experiment: Myzus test (cabbage leaf dip); details: activity found; for LC50 after 6 days: Table B (Example B)
# Text: (§1) The expected activity for a given combination of two active compounds can be calculated as follows (cf. Carpenter, C. S., “Mammalian Toxicity of 1-naphthyl-N-methylcarbamate [Sevin Insecticide]”, Agricultural and Food Chemistry, Vol. 9, No. 1, pages 30–39, 1961):
# (§2) If • Pa is the proportion of active compound A in the mixture, • Pb is the proportion of active compound B in the mixture, • LC50 (or 95)a is the concentration at which 50% (or 95%) of the animals treated with active compound A are killed and • LC50 (or 95)b is the concentration at which 50% (or 95%) of the animals treated with active compound B are killed,
# (§3) If the calculated LC50 (or 95) exceeds the value actually obtained and is higher than the confidence interval, the activity of the combination is superadditive, i.e. a synergistic effect exists.
# (§4) To produce a suitable preparation of active compound, 1 part by weight of active compound is mixed with the stated amounts of solvent and emulsifier, and the concentrate is diluted with emulsifier-containing water to the desired concentration.
# Cabbage leaves (Brassica oleracea), which are heavily infested by the green peach aphid (Myzus persicae) are treated by being dipped into the preparation of active compound of the desired concentration.
# After the desired period of time, the killed in % is determined. 100% means that all aphids have been killed. The determined kill rates are inserted into Carpenter's formula.
# After the desired period of time, the killed in % is determined. 100% means that all aphids have been killed; 0% means that none of the aphids have been killed. The determined kill rates are inserted into Carpenter's formula.
# [2] = test system: caterpillars of the diamondback moths (Plutella xylostella, sensitive strain); experiment: Plutella test, sensitive strain (cabbage leaf dip); details: activity found
# Text: as §1, §2, §3, §4
# Cabbage leaves (Brassica oleracea) are treated by being dipped into the preparation of active compound of the desired concentration and are populated with caterpillars of the diamondback moths (Plutella xylostella, sensitive strain) while the leaves are still moist.
# (§5) After the desired period of time, the kill in % is determined. 100% means that all caterpillars have been killed; 0% means that none of the caterpillars have been killed. The determined kill rates are inserted in Carpenter's formula.
# (§6) To produce a suitable preparation of active compound, 1 part by weight of active compound is mixed with the stated amounts of solvent emulsifier, and the concentrate is diluted with emulsifier-containing water to the desired concentration.
# [3] = test system: larvae of the mustard beetle (Phaedon cochleariae); experiment: Phaedon larvae test (cabbage leaf dip); details: activity found; for LC50 after 6 days: Table D (Example D)
# Text: as §1, §2, §3, §4
# Cabbage leaves (Brassica oleracea) are treated by being dipped into the preparation of active compound of the desired concentration and are populated with larvae of the mustard beetle (Phaedon cochleariae) while the leaves are still moist.
# After the desired period of time, the kill in % is determined. 100% means that all beetle larvae have been killed; 0% means that none of the beetle larvae have been killed. The determined kill rates are inserted in Carpenter's formula.
# as §6
# [4] = test system: cotton aphid (Aphis gossypii); experiment: Aphis gossypii test (cotton leaf dip); details: Table O (Example O); activity found
# Text: as §1, §2, §3, §4
# Cotton leaves (Gossypium hirsutum), which are heavily infested by the cotton aphid (Aphis gossypii) are treated by being dipped into the preparation of active compound of the desired concentration.
# After the desired period of time, the killed in % is determined. […] The determined kill rates are inserted into Carpenter's formula.
# [5] = test system: Heliothis armigera caterpillars; experiment: Heliothis armigera test (soya bean shoot dip); details: activity found
# Text: as §1, §2, §3, §4
# Soya bean shoots (glycine max) are treated by being dipped into the preparation of active compound of the desired concentration and are populated with Heliothis armigera caterpillars while the leaves are still moist.
# After the desired period of time, the kill in % is determined. 100% means that all caterpillars have been killed; 0% means that none of the caterpillars have been killed. The determined kill rates are inserted into Carpenter's formula (see preceding page).
# After the desired period of time, the kill in % is determined. 100% means that all caterpillars have been killed; 0% means that none of the caterpillars have been killed. The determined kill rates are inserted into Carpenter's formula.
# [6] = test system: caterpillars of the diamondback moths (Plutella xylostella, resistant strain); experiment: Plutella test, resistant strain (cabbage leaf dip); details: Table M (Example M); activity found
# Text: as §1, §2, §3
# To produce a suitable preparation of active compound, 1 part by weight of active compound is mixed with the stated amounts of solvent and emulsifier, and the concentrate is diluted with emulsifier-containing water to the desired concentration. […]
# After the desired period of time, the kill in % is determined. […] The determined kill rates are inserted in Carpenter's formula.
# [7] = test system: caterpillars of the armyworm (Spodoptera frugiperda); experiment: Spodoptera frugiperda test (cabbage leaf dip); details: activity found; for LC95 after 3 days: Table E (Example E)
# Text: as §1, §2, §3, §4
# Cabbage leaves (Brassica oleracea) are treated by being dipped into the preparation of active compound of the desired concentration and are populated with caterpillars of the armyworm (Spodoptera frugiperda) while the leaves are still moist.
# as §5
Compound,LC95 after 1 day ([1]; Table P (Example P)) [ppm],LC95 after 6 days ([2]; Table R (Example R)) [ppm],LC95 after 6 days ([3]; Table Q (Example Q)) [ppm],LC95 after 6 days [4] [ppm],LC50 after 6 days ([5]; Table F (Example F)) [ppm],LC95 after 6 days ([3]; Table G (Example G)) [ppm],LC50 after 6 days ([5]; Table A (Example A)) [ppm],LC50 after 6 days ([5]; Table J (Example J)) [ppm],LC50 after 6 days [1] [ppm],LC95 after 1 day ([1]; Table H (Example H)) [ppm],LC95 after 6 days ([2]; Table C (Example C)) [ppm],LC95 after 6 days ([2]; Table L (Example L)) [ppm],LC50 after 6 days [6] [ppm],LC50 after 6 days [3] [ppm],LC95 after 6 days ([3]; Table K (Example K)) [ppm],LC95 after 3 days [7] [ppm],LC50 after 6 days ([7]; Table I (Example I)) [ppm],LC50 after 6 days ([7]; Table N (Example N)) [ppm]
CC1(C)[C@H](C(=O)O[C@H](C#N)c2cccc(Oc3ccccc3)c2)[C@@H]1/C=C(\Cl)C(F)(F)F (racemic) [lambda-cyhalothrin],11.234,0.09,11.234,10.545,–,–,–,–,–,–,–,–,–,–,–,–,–,–
CC[C@H](C)[C@H]1O[C@]2(C=C[C@@H]1C)C[C@@H]1C[C@@H](C/C=C(\C)[C@@H](O[C@H]3C[C@H](OC)[C@@H](O[C@H]4C[C@H](OC)[C@@H](O)[C@H](C)O4)[C@H](C)O3)[C@@H](C)/C=C/C=C3\CO[C@@H]4[C@H](O)C(C)=C[C@@H](C(=O)O1)[C@]34O)O2 [avermectin],–,–,–,–,0.094,1.431,–,–,–,–,–,–,–,–,–,–,–,–
CN/C(=N\[N+](=O)[O-])NCc1cnc(Cl)s1 [clothianidin],1.303,28.46,7.690,4.954,15.0,11.234,0.997,3.527,1.013,5.988,42.493,9.045,27.271,6.708,17.504,6.099,2.450,0.178
CNC(=O)Oc1cc(C)c(SC)c(C)c1 [methiocarb],–,–,–,–,–,–,–,–,–,75.000,–,–,–,–,–,–,51.649,–
CC1(C)C(C=C(Cl)Cl)C1C(=O)OC(C#N)c1ccc(F)c(Oc2ccccc2)c1 (stereo not drawn) [β-cyfluthrin],–,–,–,–,–,–,0.159,–,2.583,–,0.699,–,–,0.646,–,1.113,–,–
emamectin benzoate,–,–,–,–,–,–,–,0.007,–,–,–,0.0009,0.0012,–,0.072,–,–,0.003
